Experimental data from ChEMBL document CHEMBL1201862, “PubChem BioAssay data set” (2004).
The source made the active and inactive calls.

What was measured:
Cytochrome P450 2D6 [1] = target: T1, Cytochrome P450 2D6 (Homo sapiens, UniProt P10635); assay: qHTS Assay for Inhibitors and Substrates of Cytochrome P450 2D6. [Related pubchem assays: 410 ]; format: ADME; conditions: read-out: Potency
Cytochrome P450 2C9 = Cytochrome P450 2C9 (Homo sapiens, UniProt P11712); conditions: Potency
[2] = target: Peroxisome proliferator-activated receptor gamma/Nuclear receptor coactivator 1 (Homo sapiens, UniProt P37231); assay: (§1) TR-FRET dose response biochemical High Throughput Screening assay for agonists of the steroid receptor coactivator 1 (SRC-1) recruitment by the peroxisome proliferator-activated receptor gamma (PPAR gamma): non-selective agonists. [Related pubchem assays (depositor defined):AID1300, AID1808, AID504735, AID631]; format: protein assay
[3] = target: Peroxisome proliferator-activated receptor gamma/Nuclear receptor coactivator 3 (Homo sapiens, UniProt P37231); assay: as §1, with “3 (SRC-3)” for “1 (SRC-1)”, “assays: 1301 (Confirmation screen.), 1048 (Primary screen.)]” for “assays (depositor defined):AID1300, AID1808, AID504735, AID631]”; format: functional
[4] = target: Peroxisome proliferator-activated receptor gamma/Nuclear receptor coactivator 2 (Homo sapiens, UniProt P37231); assay: TR-FRET dose response biochemical High Throughput Screening assay for agonists of the steroid receptor coactivator 2 (SRC-2) recruitment by the peroxisome proliferator-activated receptor gamma (PPAR gamma): non-selective agonists. [Related pubchem assays: 1297, 1032 ]; format: functional
CAAX prenyl protease 2 = target: T2, CAAX prenyl protease 2 (Saccharomyces cerevisiae S288c, UniProt Q03530); format: biochemical
T2 sequence (Q03530 whole entry): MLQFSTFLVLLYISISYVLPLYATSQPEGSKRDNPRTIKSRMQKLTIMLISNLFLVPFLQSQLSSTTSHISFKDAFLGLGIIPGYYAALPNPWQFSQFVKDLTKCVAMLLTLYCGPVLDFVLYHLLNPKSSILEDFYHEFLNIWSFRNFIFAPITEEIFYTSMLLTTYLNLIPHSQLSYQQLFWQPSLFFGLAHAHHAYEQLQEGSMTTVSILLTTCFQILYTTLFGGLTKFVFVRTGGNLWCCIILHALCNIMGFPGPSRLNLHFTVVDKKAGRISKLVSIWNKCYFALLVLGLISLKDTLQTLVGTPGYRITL

[5] = target: G-protein coupled receptor 55 (Homo sapiens, UniProt Q9Y2T6); assay: selective activators of receptor GPR55 – imaging, U2OS cells, beta-arrestin-GFP redistribution, primary screen (AID 1961); format: functional
Exodeoxyribonuclease V = target: T3, Exodeoxyribonuclease V (Escherichia coli (strain K12), UniProt P04993+P07648+P08394); assay: RecBCD inhibition via phage-restricted bacterial growth – absorbance, V66 E. coli, mutant T4 phage, counter-screen for AddAB inhibitor project, dose response (AID 492957); format: functional, cell-based, Escherichia coli str. K-12 substr. MG1655
T3 sequence (P04993 whole entry): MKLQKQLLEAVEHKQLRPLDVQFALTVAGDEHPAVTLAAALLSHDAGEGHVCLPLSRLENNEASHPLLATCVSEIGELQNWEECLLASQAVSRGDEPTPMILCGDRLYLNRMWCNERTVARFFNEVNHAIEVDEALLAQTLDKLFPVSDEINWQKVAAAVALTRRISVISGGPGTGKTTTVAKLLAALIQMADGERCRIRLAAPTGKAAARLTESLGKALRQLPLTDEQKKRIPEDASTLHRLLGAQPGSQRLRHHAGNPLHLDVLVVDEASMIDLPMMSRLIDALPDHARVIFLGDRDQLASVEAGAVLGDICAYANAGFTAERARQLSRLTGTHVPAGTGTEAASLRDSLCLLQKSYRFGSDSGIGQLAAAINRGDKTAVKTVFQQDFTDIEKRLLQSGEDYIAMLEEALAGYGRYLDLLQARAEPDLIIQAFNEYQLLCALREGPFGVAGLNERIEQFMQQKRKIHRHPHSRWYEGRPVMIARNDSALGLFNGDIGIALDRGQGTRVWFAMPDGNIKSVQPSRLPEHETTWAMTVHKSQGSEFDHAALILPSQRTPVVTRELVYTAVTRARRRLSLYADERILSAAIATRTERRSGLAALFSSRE
T3 sequence (P07648 whole entry): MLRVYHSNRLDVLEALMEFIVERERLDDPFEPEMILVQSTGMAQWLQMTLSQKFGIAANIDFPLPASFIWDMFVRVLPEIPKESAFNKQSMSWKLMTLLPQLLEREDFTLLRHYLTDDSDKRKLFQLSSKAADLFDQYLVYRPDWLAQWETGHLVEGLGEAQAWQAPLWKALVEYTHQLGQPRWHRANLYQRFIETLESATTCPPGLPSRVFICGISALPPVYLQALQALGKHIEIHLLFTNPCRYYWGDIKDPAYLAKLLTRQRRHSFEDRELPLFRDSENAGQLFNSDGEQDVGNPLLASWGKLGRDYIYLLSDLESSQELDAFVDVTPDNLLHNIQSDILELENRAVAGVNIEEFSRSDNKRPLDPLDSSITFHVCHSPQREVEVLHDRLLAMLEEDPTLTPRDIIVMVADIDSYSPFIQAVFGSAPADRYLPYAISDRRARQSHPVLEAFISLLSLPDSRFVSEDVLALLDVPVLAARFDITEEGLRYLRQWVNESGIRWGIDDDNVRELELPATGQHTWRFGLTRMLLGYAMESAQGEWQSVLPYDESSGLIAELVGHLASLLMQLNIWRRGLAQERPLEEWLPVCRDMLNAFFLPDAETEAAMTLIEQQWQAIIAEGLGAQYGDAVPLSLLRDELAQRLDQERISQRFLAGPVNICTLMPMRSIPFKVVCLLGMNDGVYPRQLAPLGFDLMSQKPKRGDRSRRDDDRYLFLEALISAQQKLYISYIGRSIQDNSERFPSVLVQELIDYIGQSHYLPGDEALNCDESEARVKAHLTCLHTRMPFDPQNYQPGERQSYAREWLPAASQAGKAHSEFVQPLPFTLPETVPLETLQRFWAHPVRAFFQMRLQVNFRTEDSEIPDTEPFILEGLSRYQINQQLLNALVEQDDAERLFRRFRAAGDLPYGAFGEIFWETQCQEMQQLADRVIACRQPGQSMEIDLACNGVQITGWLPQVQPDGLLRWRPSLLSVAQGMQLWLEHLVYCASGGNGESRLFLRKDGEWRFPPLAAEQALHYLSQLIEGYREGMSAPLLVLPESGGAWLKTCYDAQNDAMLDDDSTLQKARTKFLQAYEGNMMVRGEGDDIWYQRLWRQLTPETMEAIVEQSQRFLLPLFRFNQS
T3 sequence (P08394 whole entry): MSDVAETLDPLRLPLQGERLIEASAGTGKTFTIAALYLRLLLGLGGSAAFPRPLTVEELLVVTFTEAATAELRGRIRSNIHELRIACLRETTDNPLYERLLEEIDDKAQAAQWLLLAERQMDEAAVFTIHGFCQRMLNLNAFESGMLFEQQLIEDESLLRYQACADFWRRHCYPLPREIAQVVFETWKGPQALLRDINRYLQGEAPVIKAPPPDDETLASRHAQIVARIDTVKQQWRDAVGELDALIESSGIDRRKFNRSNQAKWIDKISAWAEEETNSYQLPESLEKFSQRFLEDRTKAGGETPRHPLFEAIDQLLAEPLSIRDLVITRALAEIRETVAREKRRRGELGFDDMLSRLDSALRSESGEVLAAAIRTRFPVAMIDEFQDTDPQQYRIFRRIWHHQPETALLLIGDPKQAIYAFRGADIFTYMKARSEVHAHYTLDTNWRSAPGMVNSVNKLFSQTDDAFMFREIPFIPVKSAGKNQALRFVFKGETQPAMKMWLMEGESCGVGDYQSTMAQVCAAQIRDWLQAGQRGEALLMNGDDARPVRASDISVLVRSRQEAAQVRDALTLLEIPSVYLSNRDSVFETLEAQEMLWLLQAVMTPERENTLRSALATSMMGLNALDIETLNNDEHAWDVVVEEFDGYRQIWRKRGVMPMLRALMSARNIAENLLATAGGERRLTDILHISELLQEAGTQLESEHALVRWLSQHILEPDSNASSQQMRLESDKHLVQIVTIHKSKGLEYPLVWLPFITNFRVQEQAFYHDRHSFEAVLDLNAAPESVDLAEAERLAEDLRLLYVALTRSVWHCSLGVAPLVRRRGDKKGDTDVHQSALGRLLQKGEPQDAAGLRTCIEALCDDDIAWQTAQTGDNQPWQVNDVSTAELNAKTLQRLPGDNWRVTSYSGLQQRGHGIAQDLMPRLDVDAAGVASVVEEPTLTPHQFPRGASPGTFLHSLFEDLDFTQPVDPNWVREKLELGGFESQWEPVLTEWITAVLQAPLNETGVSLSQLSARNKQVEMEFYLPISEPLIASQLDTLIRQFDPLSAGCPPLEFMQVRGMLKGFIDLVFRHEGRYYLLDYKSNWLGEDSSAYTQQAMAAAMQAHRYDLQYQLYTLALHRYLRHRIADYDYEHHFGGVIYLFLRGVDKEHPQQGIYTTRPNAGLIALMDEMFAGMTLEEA

[6] = Counterscreen for AddAB inhibitors: absorbance-based bacterial cell-based high throughput dose response assay for inhibitors of bacterial viability. [Related pubchem assays (depositor defined):AID435030, AID449728, AID449731, AID488942, AID488955, AID488956]; format: functional
[7] = target: DNA dC->dU-editing enzyme APOBEC-3A (Homo sapiens, UniProt P31941); assay: Dose Response confirmation of small molecule APOBEC3A DNA Deaminase Inhibitors via a fluorescence-based single-stranded DNA deaminase assay. [Related pubchem assays (depositor defined):AID493011, AID493024]; format: functional
[8] = target: DNA dC->dU-editing enzyme APOBEC-3G (Homo sapiens, UniProt Q9HC16); format: functional;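 also: Dose-response counterscreen measuring inhibition of APOBEC3G DNA deaminase activity, run while confirming APOBEC3A inhibitors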
[9] = Trypanosoma cruzi growth suppression in host cells – NIH3T3 host cells, beta-gal luminescence, confirmation (AID 2044); format: functional, cell-based;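 also: intracellular parasites grown in NIH/3T3 mouse fibroblasts as host cells; luminescent beta-galactosidase reporter signal from transgenic T. cruzi replicating inside host cells; inhibitors lower the luminescence signal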
[10] = NIH3T3 cell viability loss – ATP luminescence, mouse fibroblasts, counter-screen, dose response (AID 2010); format: functional, cell-based;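 also: cells exposed to compound for about 90 hours before reading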
[11] = reduction of Shn3 3'UTR-driven luciferase in osteoblasts – cell-based, Clone20 osteoblasts, firefly luciferase, cherry-picked, dose response (AID 624132); format: functional;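 also: firefly luciferase luminescence from reporter carrying the Shn3 3'UTR in osteoblasts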
[12] = loss of viability in HepG2 cells – cell-based, CellTiter-Glo, cherry-picked, cytotoxicity control for Shn3 inhibitor project, dose response (AID 624134); format: functional
Cytochrome P450 2D6 [13] = target: T1, Cytochrome P450 2D6
[14] = target: T4, Tyrosine-protein phosphatase non-receptor type 7 (Homo sapiens, UniProt P35236); assay: redox-active compounds inhibiting HePTP phosphatase – biochemical, fluorescence, mechanism study (AID 2068); format: functional
T4 sequence (P35236 whole entry): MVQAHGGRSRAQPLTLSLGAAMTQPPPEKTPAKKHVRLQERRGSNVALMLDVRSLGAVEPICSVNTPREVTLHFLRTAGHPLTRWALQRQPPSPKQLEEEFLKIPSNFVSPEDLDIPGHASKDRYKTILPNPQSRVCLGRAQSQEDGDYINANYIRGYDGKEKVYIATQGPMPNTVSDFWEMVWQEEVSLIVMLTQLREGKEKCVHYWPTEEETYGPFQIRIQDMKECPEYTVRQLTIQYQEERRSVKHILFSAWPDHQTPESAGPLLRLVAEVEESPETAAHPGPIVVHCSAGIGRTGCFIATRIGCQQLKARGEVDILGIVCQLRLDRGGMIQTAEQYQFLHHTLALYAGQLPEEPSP

[15] = target: T5, Dual specificity protein phosphatase 6 (Rattus norvegicus, UniProt Q64346); format: functional;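 also: confirmatory in vitro dose-response testing of MKP-3 inhibition; recombinant His-tagged MKP-3 made in E. coli BL21 with OMFP substrate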
T5 sequence (Q64346 whole entry): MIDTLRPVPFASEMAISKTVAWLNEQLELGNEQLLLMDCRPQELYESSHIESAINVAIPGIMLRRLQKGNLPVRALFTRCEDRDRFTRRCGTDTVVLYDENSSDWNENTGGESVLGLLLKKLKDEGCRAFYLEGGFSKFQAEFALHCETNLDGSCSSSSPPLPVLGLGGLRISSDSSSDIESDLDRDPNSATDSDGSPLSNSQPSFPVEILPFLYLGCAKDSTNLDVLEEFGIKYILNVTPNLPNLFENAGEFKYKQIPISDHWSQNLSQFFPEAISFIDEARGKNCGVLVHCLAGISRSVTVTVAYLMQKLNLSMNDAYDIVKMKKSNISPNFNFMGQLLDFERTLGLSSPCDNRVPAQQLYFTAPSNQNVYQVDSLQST

Sequence of Peroxisome proliferator-activated receptor gamma/Nuclear receptor coactivator 1 (P37231 whole entry): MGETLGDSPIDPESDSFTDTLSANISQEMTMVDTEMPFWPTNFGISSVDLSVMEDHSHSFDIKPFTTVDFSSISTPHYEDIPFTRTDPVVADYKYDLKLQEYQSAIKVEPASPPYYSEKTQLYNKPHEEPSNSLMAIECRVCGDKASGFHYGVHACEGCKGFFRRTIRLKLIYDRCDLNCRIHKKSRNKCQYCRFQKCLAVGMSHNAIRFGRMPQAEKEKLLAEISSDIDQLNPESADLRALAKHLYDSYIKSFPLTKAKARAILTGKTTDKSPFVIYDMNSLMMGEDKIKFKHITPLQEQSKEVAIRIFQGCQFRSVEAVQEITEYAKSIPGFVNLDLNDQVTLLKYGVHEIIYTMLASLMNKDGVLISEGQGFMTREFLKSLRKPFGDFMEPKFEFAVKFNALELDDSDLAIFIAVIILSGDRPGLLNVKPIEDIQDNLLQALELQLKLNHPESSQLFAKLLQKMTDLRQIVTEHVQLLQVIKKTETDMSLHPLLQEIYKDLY
Sequence of Peroxisome proliferator-activated receptor gamma/Nuclear receptor coactivator 1 (Q15788 whole entry, further chain): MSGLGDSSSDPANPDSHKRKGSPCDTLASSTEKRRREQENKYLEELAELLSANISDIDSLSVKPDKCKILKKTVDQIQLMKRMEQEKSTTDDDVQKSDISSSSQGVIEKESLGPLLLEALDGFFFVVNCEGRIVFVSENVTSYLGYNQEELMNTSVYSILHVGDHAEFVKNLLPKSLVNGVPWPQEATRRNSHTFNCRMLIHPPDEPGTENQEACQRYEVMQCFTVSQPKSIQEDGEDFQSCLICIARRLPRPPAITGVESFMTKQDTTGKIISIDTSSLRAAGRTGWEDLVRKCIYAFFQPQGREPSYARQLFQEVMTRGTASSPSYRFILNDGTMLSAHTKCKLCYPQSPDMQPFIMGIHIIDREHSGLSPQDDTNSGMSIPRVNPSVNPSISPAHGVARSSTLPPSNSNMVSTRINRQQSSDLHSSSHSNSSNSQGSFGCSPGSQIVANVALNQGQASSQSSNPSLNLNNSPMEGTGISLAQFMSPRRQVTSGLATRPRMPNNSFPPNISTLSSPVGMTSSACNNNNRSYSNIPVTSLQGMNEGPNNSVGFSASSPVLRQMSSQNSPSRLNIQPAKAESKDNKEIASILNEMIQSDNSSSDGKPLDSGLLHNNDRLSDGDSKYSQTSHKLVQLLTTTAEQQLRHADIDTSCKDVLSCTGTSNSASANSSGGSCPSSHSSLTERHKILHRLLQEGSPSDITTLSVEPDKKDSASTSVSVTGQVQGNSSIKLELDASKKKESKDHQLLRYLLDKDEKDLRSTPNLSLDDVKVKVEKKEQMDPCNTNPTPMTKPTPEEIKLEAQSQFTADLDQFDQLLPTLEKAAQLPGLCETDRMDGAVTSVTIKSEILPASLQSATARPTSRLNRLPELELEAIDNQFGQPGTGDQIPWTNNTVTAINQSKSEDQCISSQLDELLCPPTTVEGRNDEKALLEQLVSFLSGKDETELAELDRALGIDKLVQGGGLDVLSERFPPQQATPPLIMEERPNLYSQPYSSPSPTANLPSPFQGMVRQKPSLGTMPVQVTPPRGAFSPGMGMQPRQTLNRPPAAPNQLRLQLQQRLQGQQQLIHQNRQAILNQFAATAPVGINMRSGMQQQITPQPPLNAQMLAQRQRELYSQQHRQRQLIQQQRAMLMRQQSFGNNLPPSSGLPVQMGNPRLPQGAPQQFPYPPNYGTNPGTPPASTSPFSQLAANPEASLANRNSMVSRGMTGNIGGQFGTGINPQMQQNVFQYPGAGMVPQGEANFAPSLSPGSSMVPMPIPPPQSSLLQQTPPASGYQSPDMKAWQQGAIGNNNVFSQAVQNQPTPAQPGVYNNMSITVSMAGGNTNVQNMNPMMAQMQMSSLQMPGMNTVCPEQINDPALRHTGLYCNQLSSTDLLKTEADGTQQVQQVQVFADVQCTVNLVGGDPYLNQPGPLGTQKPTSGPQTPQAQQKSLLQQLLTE
Sequence of Peroxisome proliferator-activated receptor gamma/Nuclear receptor coactivator 3 (P37231 whole entry): as the sequence (P37231 whole entry) above
Sequence of Peroxisome proliferator-activated receptor gamma/Nuclear receptor coactivator 3 (Q9Y6Q9 whole entry, further chain): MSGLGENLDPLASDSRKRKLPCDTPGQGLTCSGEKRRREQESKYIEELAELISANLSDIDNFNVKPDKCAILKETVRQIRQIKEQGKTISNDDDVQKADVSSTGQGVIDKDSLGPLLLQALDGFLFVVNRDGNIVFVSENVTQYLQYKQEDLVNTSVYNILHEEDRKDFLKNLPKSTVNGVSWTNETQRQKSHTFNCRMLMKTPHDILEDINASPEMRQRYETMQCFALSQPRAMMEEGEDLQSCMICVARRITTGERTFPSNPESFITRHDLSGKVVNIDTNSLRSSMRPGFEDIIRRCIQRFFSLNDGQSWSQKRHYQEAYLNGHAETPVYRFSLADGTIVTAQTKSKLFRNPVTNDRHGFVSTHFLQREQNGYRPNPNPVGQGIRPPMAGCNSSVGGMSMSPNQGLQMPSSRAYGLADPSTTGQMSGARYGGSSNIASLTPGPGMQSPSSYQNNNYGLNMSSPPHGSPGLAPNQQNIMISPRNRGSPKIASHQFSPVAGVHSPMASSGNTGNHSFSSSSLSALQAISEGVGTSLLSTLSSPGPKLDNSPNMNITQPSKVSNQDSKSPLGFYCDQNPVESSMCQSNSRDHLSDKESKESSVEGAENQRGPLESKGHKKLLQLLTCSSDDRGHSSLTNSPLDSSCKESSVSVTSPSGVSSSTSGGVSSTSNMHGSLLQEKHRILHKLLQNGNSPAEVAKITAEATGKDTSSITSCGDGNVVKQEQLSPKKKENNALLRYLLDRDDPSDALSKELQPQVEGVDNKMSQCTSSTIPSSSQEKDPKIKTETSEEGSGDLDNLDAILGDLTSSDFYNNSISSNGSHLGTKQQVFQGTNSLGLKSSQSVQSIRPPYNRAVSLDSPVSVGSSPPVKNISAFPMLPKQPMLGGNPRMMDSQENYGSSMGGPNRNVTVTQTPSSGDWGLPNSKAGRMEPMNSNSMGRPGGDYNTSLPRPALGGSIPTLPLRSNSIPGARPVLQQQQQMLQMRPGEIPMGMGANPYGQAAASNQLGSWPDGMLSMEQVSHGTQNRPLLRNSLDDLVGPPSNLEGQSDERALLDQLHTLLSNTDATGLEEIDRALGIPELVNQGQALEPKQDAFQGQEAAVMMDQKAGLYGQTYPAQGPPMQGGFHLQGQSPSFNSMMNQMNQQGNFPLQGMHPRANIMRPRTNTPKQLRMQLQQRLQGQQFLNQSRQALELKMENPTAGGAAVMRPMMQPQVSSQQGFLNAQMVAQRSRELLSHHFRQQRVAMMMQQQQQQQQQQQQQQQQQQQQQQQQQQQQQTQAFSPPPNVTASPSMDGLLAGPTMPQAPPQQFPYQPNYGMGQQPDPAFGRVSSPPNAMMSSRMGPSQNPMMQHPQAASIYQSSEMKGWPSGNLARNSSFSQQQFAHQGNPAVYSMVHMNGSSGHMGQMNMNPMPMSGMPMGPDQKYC
Sequence of DNA dC->dU-editing enzyme APOBEC-3A (P31941 whole entry): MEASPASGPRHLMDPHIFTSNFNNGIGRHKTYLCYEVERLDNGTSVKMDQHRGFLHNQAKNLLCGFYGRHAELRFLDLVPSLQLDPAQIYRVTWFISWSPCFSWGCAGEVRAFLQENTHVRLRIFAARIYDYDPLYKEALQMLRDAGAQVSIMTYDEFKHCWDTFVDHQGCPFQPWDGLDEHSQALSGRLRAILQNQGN
T1 sequence (P10635 whole entry): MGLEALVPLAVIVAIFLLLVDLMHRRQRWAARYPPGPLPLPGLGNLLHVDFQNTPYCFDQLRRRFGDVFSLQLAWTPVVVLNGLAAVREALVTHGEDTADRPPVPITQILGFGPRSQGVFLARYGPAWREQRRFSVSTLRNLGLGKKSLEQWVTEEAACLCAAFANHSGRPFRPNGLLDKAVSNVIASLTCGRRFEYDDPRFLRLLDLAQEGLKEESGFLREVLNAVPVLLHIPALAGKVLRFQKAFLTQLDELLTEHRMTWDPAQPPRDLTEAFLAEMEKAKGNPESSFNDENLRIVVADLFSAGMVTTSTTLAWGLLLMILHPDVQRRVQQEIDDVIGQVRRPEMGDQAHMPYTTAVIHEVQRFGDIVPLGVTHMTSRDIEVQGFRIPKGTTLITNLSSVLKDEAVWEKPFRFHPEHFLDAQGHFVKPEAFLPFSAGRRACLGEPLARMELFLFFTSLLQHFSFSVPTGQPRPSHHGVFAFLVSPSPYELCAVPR
Sequence of DNA dC->dU-editing enzyme APOBEC-3G (Q9HC16 whole entry): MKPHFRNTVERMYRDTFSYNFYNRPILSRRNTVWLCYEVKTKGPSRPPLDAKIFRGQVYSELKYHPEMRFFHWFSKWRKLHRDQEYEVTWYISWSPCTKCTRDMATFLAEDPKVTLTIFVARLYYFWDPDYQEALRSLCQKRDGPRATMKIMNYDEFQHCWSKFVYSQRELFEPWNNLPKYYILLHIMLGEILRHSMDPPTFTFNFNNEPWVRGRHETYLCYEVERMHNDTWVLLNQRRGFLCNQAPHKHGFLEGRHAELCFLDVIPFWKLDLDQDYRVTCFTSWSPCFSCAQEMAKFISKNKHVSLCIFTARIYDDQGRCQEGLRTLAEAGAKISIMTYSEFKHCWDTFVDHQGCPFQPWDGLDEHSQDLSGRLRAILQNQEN

NCCC[C@@H](CC(=O)N[C@@H]1CCNC[C@H]1C(=O)N[C@H](CC(=O)N[C@@H](CCC(=O)O)CC(=O)O)Cc1c[nH]c2ccccc12)NC(=O)C[C@H](Cc1c[nH]c2ccccc12)NC(=O)[C@@H]1CNCC[C@H]1N
AC50 (Cytochrome P450 2D6 [1]): 39.8 µM (inconclusive) | AC50 (Cytochrome P450 2C9): 31.6 µM (inconclusive)

CCn1c(=O)cc(SCC(=O)NCC2CCCO2)c2ccccc21 (centres undefined)
EC50 [2]: > 79.4 µM (inactive) | EC50 [3]: > 79.4 µM (not active) | EC50 [4]: > 79.4 µM (not active)

O=c1c(-c2ccccc2)c(O)c2ccccc2n1-c1ccccc1
AC50 (CAAX prenyl protease 2): 5.31 µM (active)

COCc1nnc(NC(=O)CCSc2ccccc2)s1
EC50 [5]: > 32 µM (inactive)

CCCS(=O)(=O)N1CCC(C(=O)NCc2ccccc2Cl)CC1
IC50 (Exodeoxyribonuclease V): > 119 µM (inactive) | IC50 [6]: > 119 µM (inactive)

COc1ccc(/C=C2\Sc3ccc(C(=O)NC4CC4)cc3N(C)C2=O)cc1OC
EC50 [5]: > 32 µM (inactive)

CCCC[n+]1c(C)sc2cc(OC)ccc21
IC50 [7]: 36 µM (active) | IC50 [8]: > 100 µM (inactive)

Cc1ccc(CNC(=O)c2ccc3c(O)c(O)c(-c4ccc(C)cc4)nc3c2)cc1
EC50 [9]: 1.14 µM (active) | EC50 [10]: 7.02 µM (active) | IC50 (Exodeoxyribonuclease V): > 119 µM (inactive) | IC50 [6]: > 119 µM (inactive) | AC50 [11]: 2.82 µM (active) | AC50 [12]: 3.49 µM (active)

COc1ccccc1C1=NN(C(S)=Nc2ccccc2)C(c2ccco2)C1 (centres undefined)
EC50 [2]: 19.7 µM (inactive) | EC50 [3]: > 79.4 µM (not active) | EC50 [4]: > 79.4 µM (not active)

O=C1CN(/N=C\c2ccc(-c3ccc([N+](=O)[O-])cc3)o2)C(O)=N1
AC50 (Cytochrome P450 2D6 [13]): inactive

O=C(NCCC1=CCCCC1)Nc1ccc2nc(-c3ccco3)c(-c3ccco3)nc2c1
IC50 [14]: 2.73 µM (active)

COc1cc(C(=S)NCc2ccc(O)cc2)ccc1O
IC50 [14]: 10.1 µM (active) | IC50 [15]: > 100 µM (inactive)

C[N+](C)(C)CCCCCC(=O)C=NO
IC50 [7]: 5.54 µM (active) | IC50 [8]: 12.6 µM (active)

COc1cc(C(=S)NCc2ccc(C)cc2C)ccc1O
IC50 [14]: 1.64 µM (active) | IC50 [15]: > 100 µM (inactive)
